Assay results reported in PMC6331910, “The Curcumin Analogue 1,5-Bis(2-hydroxyphenyl)-1,4-pentadiene-3-one Induces Apoptosis and Downregulates E6 and E7 Oncogene Expression in HPV16 and HPV18-Infected Cervical Cancer Cells” (Molecules, 2015).
Like-named read-outs stand apart in the source and are kept apart here.

Assays:
[1] = system: CaSki; assay: MTT cell viability (dose-dependent cytotoxicity) assay, 72 h; format: cell-based, human; conditions: for Selective Index CaSki: EC50 (MRC9)/EC50 (CaSki) × 100; for EC50: read-out: EC50 (Mean ± S.E.M.) CaSki
Method: (§1) Control-treated wells contained cells incubated in media with equal volumes of DMSO (0.2%). […] The media was aspirated and cells were incubated in 100 µL complete medium with 0.5 mg/mL MTT solution for 4 h in the dark to allow metabolism of MTT by cellular mitochondrial dehydrogenases. The excess MTT was aspirated and the formazan crystals formed were dissolved by the addition of 100 µL of DMSO. The absorbance of dark blue formazan was read at 570/650 nm wavelengths using a microplate reader (Bio-Rad Benchmark Plus Microplate Spectrophotometer, Hercules, CA, USA). Triplicate absorbance values were averaged and the effect of the compounds on growth inhibition was assessed as percentage cell viability as follows: […] The results were analysed using GraphPad Prism version 6.00 for Windows (GraphPad Software, La Jolla, CA, USA). […] Overall EC50 was determined by taking the average EC50 from three independent experiments.

[2] = system: HeLa; assay: as above; format: cell-based, human; conditions: for Selective Index HeLa: EC50 (MRC9)/EC50 (HeLa) × 100; for EC50: read-out: EC50 (Mean ± S.E.M.) HeLa
Method: as §1

[3] = system: MRC9; assay: MTT cell viability (cytotoxicity) assay on non-cancerous lung fibroblasts, 72 h; format: cell-based; conditions: Homo sapiens, read-out: EC50 (Mean ± S.E.M.) MRC9
Method: (§2) HeLa, CaSki and MRC9 cells were plated in triplicate wells in 96-well flat-bottomed tissue culture plates (Nunc, Roskilde, Denmark) with 10^5 cells per mL in 100 μL culture media with working concentrations of diarylpentanoid treatment ranging from 1.6 to 100 μM. Control-treated wells contained cells incubated in media with equal volumes of DMSO (0.2%). Cells were treated for 72 h for dose-dependent cytotoxicity assays and at 24, 48 and 72 h for anti-proliferative (time-dependent) assays. In order to assess cell viability and anti-proliferative activity after diarylpentanoid treatment, the colorimetric 3-(4,5-dimethylthiazol-2-yl)-2,5-diphenyltetrazolium bromide (MTT) assay was performed as previously described with modifications. The media was aspirated and cells were incubated in 100 µL complete medium with 0.5 mg/mL MTT solution for 4 h in the dark to allow metabolism of MTT by cellular mitochondrial dehydrogenases. The excess MTT was aspirated and the formazan crystals formed were dissolved by the addition of 100 µL of DMSO. The absorbance of dark blue formazan was read at 570/650 nm wavelengths using a microplate reader (Bio-Rad Benchmark Plus Microplate Spectrophotometer, Hercules, CA, USA). Triplicate absorbance values were averaged and the effect of the compounds on growth inhibition was assessed as percentage cell viability as follows: (1) Percentage cell viability =Absorbance of Test − Absorbance of Blank (media only)/Absorbance of Control − Absorbance of Blank (media only) × 100 where, absorbance = optical density of sample, O.D.; control = untreated sample; test = treated sample.
The results were analysed using GraphPad Prism version 6.00 for Windows (GraphPad Software, La Jolla, CA, USA). Using percentage cell viability Equation (1), log dose–response curves were constructed, from which the half maximal effective concentration, EC50 for each replicate was determined. Overall EC50 was determined by taking the average EC50 from three independent experiments. […] (3) Selectivity Index (SX) =EC50 (MRC9)/EC50 (Cancer cell line) × 100

[4] = system: CaSki; assay: MTT anti-proliferative (time-dependent) assay, 24, 48 and 72 h; format: cell-based, human; conditions: for concentration from which a notable decline in cell viability was caused / effect on cell viability: at 24, 48 and 72 h; for cell viability: 6.3–100 μM
Method: as §2
(§3) An independent set of vehicle-treated (DMSO only) controls were included in the anti-proliferative assays to assess the proliferation of untreated cancer cells over 24, 48 and 72 h. As such, the cell viability at 24 h was used as a baseline to measure proliferation rate at 48 and 72 h. (2) Percentage cell viability = […]/Absorbance of Control (24 h) × Absorbance of Blank (media only) × 100

[5] = system: HeLa; assay: as above; format: cell-based, human; conditions: for concentration from which a notable decline in cell viability was caused / cell growth: at 24, 48 and 72 h; for reduction of cell viability: 12.5 μM and above
Method: as §2, §3

[6] = Homo sapiens, Ca-Ski, MTT, 72 h
[7] = MRC9, MTT, 72 h, non-cancerous lung fibroblasts

Row | Compound | Selective Index CaSki [1] | EC50 [1, 6] | Selective Index HeLa [2] | EC50 ([2]; Homo sapiens, HeLa, MTT, 72 h) | EC50 [3, 7] | concentration from which a notable decline in cell viability was caused [4] | concentration from which a notable decline in cell viability was caused [5] | effect on cell viability ([4]; 12.5 μM onwards) | cell growth ([5]; onwards from 25 μM) | also measured
1 | COc1cc(/C=C/C(=O)CC(=O)/C=C/c2ccc(O)c(OC)c2)ccc1O [Curcumin] | 168 | 15.8 ± 3.1 µM | 100 | 26.7 ± 14.3 µM | 26.6 ± 3.2 µM | 25 µM | 50 µM |  |  | inhibition at 25 µM ([1]; Homo sapiens, Ca-Ski, CaSki, 25 μM, 72 h, read-out: growth inhibition): 50%; inhibition at 50 µM ([2]; Homo sapiens, HeLa, beginning at 50 μM, 72 h, read-out: growth inhibition): ~50%; effect on cell viability ([4]; from 25 μM onwards): significant decline in cell viability; cell growth ([5]; onwards from 50 μM): below 50%
2 | O=C(C=Cc1cccc(F)c1)C=Cc1cccc(F)c1 [MS40E, 1,5-bis(3-fluorophenyl)-1,4-pentadiene-3-one] | 906 | 3.5 ± 0.4 µM | 204 | 15.5 ± 1.9 µM | 31.7 ± 3.2 µM | 12.5 µM | 25 µM | significant decline in cell viability | below 50% | inhibition at 6.3 µM ([1]; Homo sapiens, Ca-Ski, CaSki, 6.3 μM, 72 h, read-out: growth inhibition): 80%; inhibition at 100 µM ([1]; Homo sapiens, Ca-Ski, CaSki, 100 μM, 72 h, read-out: growth inhibition): 90%; inhibition at 25 µM ([2]; Homo sapiens, HeLa, beginning at 25 μM, 72 h, read-out: growth inhibition): ~75%
3 | O=C1C(=Cc2cccc(F)c2)CCCC1=Cc1cccc(F)c1 [MS49, 2,6-bis(3-fluorobenzylidene)cyclohexanone] | 273 | 6 ± 2.9 µM | 199 | 8.3 ± 4.6 µM | 16.4 ± 4.4 µM | 12.5 µM | 25 µM | significant decline in cell viability | below 50% | cell viability ([1]; CaSki, 25–100 μM, 72 h): around 10%; viability at 12.5 µM ([1]; Homo sapiens, Ca-Ski, CaSki, 12.5 μM, 72 h): 20%; inhibition at 12.5 µM ([2]; Homo sapiens, HeLa, beginning at 12.5 μM, 72 h, read-out: growth inhibition): ~75%
4 | COc1cc(C=CC(=O)C=Cc2ccc(O)c(OC)c2)ccc1O [MS13, 1,5-bis(4-hydroxy-3-methoxyphenyl)-1,4-pentadiene-3-one] | 346 |  | 145 |  |  |  |  |  |  | decrease in cell growth ([1]; CaSki, 3.1 μM, 72 h): 50%; cell growth after treatment ([1]; CaSki, 6.3–100 μM, 72 h): around 10%; EC50 ([1]; Homo sapiens, Ca-Ski, 72 h): 2.8 ± 0.4 µM; cell viability ([2]; HeLa, beyond 12.5 μM, 72 h): less than 10%; EC50 ([2]; Homo sapiens, HeLa, 72 h): 6.7 ± 2.4 µM; viability at 12.5 µM ([2]; Homo sapiens, HeLa, 12.5 μM, 72 h): ~12%; EC50 ([3]; MRC9, 72 h): 9.7 ± 2.4 µM; dosage from which reduction in cell viability was significantly higher at 48 and 72 h than at 24 h [4]: 6.3 µM; cell viability ([4]; 48 h): 21%; cell viability ([4]; 72 h): 9%; viability at 12.5 µM ([4]; Homo sapiens, Ca-Ski, 12.5 μM, 24 h, read-out: decline of cell viability): ~50%; dosage from which reduction in cell viability was significantly higher at 48 and 72 h than at 24 h [5]: 12.5 µM; reduction of cell viability ([5]; 24 h): 72%; reduction of cell viability ([5]; 48 h): approximately 91%; reduction of cell viability ([5]; 72 h): ~95%
